From ChEMBL document CHEMBL1201862, “PubChem BioAssay data set” (2004)
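Values below derive from 48-hour exposures of cells grown in 96-well plates, with endpoints linearly interpolated between the two concentrations bracketing the appropriate inhibition level. Here, GI50 denotes the concentration required for 50% inhibition of growth.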 Activity calls are given as the source filed them. Rule as the data show it: active = GI50 up to about 1.1 µM and inactive = higher.

Experiments:
Assay in all cases: growth of human tumour cells (NCI), 48 h
[1] = tested on: 786-0
[2] = tested on: A498
[3] = tested on: A549
[4] = tested on: ACHN
[5] = tested on: CCRF-CEM
[6] = tested on: COLO 205
[7] = tested on: DLD-1
[8] = tested on: DMS-114
[9] = tested on: DMS-273
[10] = tested on: EKVX
[11] = tested on: HCC 2998
[12] = tested on: HCT-116
[13] = tested on: HCT-15
[14] = tested on: HL-60
[15] = tested on: HOP-62
[16] = tested on: HOP-92
[17] = tested on: HT-29
[18] = tested on: IGROV-1
[19] = tested on: K562
[20] = tested on: KM-20L2
[21] = tested on: KM12
[22] = tested on: LOX IMVI
[23] = tested on: M14
[24] = tested on: M19-MEL
[25] = tested on: MOLT-4
[26] = tested on: NCI-H226
[27] = tested on: NCI-H23
[28] = tested on: NCI-H460
[29] = tested on: NCI-H522
[30] = tested on: OVCAR-3
[31] = tested on: OVCAR-4
[32] = tested on: OVCAR-5
[33] = tested on: OVCAR-8
[34] = tested on: RPMI-8226
[35] = tested on: RXF 393
[36] = tested on: RXF 631
[37] = tested on: SF-268
[38] = tested on: SF-295
[39] = tested on: SF-539
[40] = tested on: SK-MEL-28
[41] = tested on: SK-MEL-2
[42] = tested on: SK-MEL-5
[43] = tested on: SK-OV-3
[44] = tested on: SN12C
[45] = tested on: SNB-19
[46] = tested on: SNB-75
[47] = tested on: SNB-78
[48] = tested on: SW-620
[49] = tested on: TK-10
[50] = tested on: U-251
[51] = tested on: UACC-62
[52] = tested on: UO-31
[53] = tested on: XF498

CCSC(SCC)c1cc2c(cc1Br)OCO2
GI50 [1]: 33 µM (inactive)
GI50 [2]: 25.8 µM (inactive)
GI50 [3]: 28.6 µM (inactive)
GI50 [4]: 40.3 µM (inactive)
GI50 [5]: 16.6 µM (inactive)
GI50 [6]: 15.2 µM (inactive)
GI50 [7]: 41 µM (inactive)
GI50 [8]: 15.5 µM (inactive)
GI50 [9]: 3.7 µM (inactive)
GI50 [10]: 31.8 µM (inactive)
GI50 [11]: 17.8 µM (inactive)
GI50 [12]: 18.7 µM (inactive)
GI50 [13]: 9.64 µM
GI50 [14]: 10.1 µM (inactive)
GI50 [15]: 60.3 µM (inactive)
GI50 [16]: 17.8 µM (inactive)
GI50 [17]: 16.8 µM (inactive)
GI50 [18]: 55.8 µM (inactive)
GI50 [19]: 3.77 µM (inactive)
GI50 [20]: 11.5 µM (inactive)
GI50 [21]: 35.6 µM (inactive)
GI50 [22]: 16.2 µM (inactive)
GI50 [23]: 16.9 µM (inactive)
GI50 [24]: 19.1 µM (inactive)
GI50 [25]: 11.9 µM (inactive)
GI50 [26]: 24.2 µM (inactive)
GI50 [27]: 26.7 µM (inactive)
GI50 [28]: 18.5 µM (inactive)
GI50 [29]: 24 µM (inactive)
GI50 [30]: 22.9 µM (inactive)
GI50 [31]: 57.8 µM (inactive)
GI50 [32]: 27.2 µM (inactive)
GI50 [33]: 31.3 µM (inactive)
GI50 [34]: 19.4 µM (inactive)
GI50 [35]: 26.7 µM (inactive)
GI50 [36]: 13.1 µM (inactive)
GI50 [37]: 35 µM (inactive)
GI50 [38]: 24.5 µM (inactive)
GI50 [39]: 16.1 µM (inactive)
GI50 [40]: 33.2 µM (inactive)
GI50 [41]: 18.9 µM (inactive)
GI50 [42]: 17.5 µM (inactive)
GI50 [43]: 25.2 µM (inactive)
GI50 [44]: 30.5 µM (inactive)
GI50 [45]: 58.9 µM (inactive)
GI50 [46]: 18.8 µM (inactive)
GI50 [47]: 26.5 µM (inactive)
GI50 [48]: 10.6 µM (inactive)
GI50 [49]: 44.7 µM (inactive)
GI50 [50]: 17 µM (inactive)
GI50 [51]: 28.5 µM (inactive)
GI50 [52]: 20.8 µM (inactive)
GI50 [53]: 20.4 µM (inactive)
